This is an account of results in EP1219631A1, “ANTIANDROGEN AGENTS” (CHUGAI SEIYAKU KABUSHIKI KAISHA, priority 1999, dated 2001).

The target in data set [1] is T1, human androgen receptor (Homo sapiens, UniProt P10275).
T1 construct: expressed in transfected cells; host or cells: HeLa cells
T1 sequence (P10275 1-920): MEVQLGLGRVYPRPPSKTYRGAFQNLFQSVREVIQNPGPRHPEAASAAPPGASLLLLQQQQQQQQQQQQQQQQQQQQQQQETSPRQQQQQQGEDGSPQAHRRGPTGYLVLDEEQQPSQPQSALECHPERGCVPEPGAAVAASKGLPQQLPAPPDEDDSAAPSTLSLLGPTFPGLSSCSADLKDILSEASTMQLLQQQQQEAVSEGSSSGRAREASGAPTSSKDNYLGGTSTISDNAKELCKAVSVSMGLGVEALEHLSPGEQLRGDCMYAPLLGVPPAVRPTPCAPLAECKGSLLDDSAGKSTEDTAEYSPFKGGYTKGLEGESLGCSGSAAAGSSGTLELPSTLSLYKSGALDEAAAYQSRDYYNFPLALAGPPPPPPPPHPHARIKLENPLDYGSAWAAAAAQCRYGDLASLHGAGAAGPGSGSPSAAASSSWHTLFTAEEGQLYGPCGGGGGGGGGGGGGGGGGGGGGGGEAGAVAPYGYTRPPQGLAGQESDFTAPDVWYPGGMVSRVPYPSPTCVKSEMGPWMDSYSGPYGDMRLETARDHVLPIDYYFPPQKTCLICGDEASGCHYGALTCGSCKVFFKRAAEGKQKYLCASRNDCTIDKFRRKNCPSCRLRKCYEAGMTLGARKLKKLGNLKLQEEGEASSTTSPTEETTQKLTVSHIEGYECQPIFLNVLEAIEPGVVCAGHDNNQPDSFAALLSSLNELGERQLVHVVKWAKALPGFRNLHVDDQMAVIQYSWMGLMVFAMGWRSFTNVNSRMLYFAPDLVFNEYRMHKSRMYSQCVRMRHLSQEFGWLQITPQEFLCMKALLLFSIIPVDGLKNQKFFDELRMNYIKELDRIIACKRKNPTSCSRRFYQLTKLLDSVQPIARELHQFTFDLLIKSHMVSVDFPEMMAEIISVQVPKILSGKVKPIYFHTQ
Nature of the data set: Androgen receptor reporter gene assay, agonist action (MMTV-Luc, pSG5-hAR and Renilla Luc vectors transfected into HeLa cells, dual-luciferase). The data set is classed as cell-based. The following applies: for FI5 value: concentration showing a transcriptional activity five times that without compound, tested at 1, 10, 100, 1000 and 10000 nmol/L. An excerpt: Speaking of the substance of the invention which acts as antagonist against but not as agonist for the androgen receptor, the expression "not acting as agonist" means that in the following androgen receptor gene assay, the transcriptional activity value of the substance at any concentration of 0.1 nmol/L - 10 µmol/L is from one to five times the transcriptional activity value for no addition of the substance which is taken as unity:
Twenty-four hours before transfection, 1.0 x 10^5 HeLa cells (purchased from Dainippon Pharmaceutical Co., Ltd.) are cultured in phenol red free Dulbecco's modified Eagle medium (DMEM) containing 5% of charcoal-treated FBS (DCC-FBS) in 12-well microplates. Five hundred nanograms/well of MMTV-Luc vector (the reporter plasmid of luciferase having mouse tumor long terminal repeats containing the androgen response element: GM-CAT vector (A.T.C.C. No. 67282) purchased from A.T.C.C. provided that the chloramphenicol acetyl transferase gene was replaced by the firefly luciferase gene), 100 ng/well of pSG5-hAR (the expression vector of the human androgen receptor which harbors the androgen receptor gene under the control of SV40 promoter) and 5 ng/well of Renilla Luc vector (a vector for internal standard incorporating the sea pansy luciferase gene) are transfected into the HeLa cells. The transfection is performed in a liquid culture of the phenol red free DMEM using […] of lipofectoamine (GibcoBRL). Nine hours after the transfection, the liquid culture is replaced by phenol red free DMEM/3% DCC-FBS containing 10 µmol/L of a compound of the invention which is represented by the general formula (I) or the substance of the invention which acts as antagonist against but not as agonist for the androgen receptor. The transcriptional activity value is measured 48 hours after the replacement of the liquid culture. Transcriptional activity is measured with a dual-luciferase reporter assay system (Promega). The transcriptional activity value is defined as the value for firefly luciferase divided by the value for sea pansy luciferase. […] 270, pp. 19998-20003, 1995.
(§1) Twenty-four hours before transfection, 1.0 x 10^5 HeLa cells were cultured in phenol red free DMEM/5% DCC-FBS on 12-well microplates. Five hundred nanograms/well of MMTV-Luc vector, 100 ng/well of pSG5-hAR and 5 ng/well of Renilla Luc vector were transfected into the HeLa cells. The transfection was performed in a liquid culture of the phenol red free DMEM using […] of lipofectoamine. […] The transcriptional activity value was measured 48 hours after the replacement of the liquid culture. Transcriptional activity was measured with a dual-luciferase reporter assay system. The transcriptional activity value was calculated as the value for firefly luciferase divided by the value for sea pansy luciferase.
The compound was added at concentrations of 1, 10, 100, 1000 and 10000 nmol/L. Agonist activity = Transcriptional activity when the compound was added/Transcriptional activity when the compound was not added [formula]

Data set [2] concerns the target T1, human androgen receptor. Kind of data set: Androgen receptor reporter gene assay, antagonist action against DHT (MMTV-Luc, pSG5/hAR and Renilla Luc vectors transfected into HeLa cells, dual-luciferase). The data set is classed as cell-based. As to the method: The expression "acting as antagonist" means that in the following androgen receptor gene assay, the transcriptional activity value of 0.1 nmol/L of dihydrotestosterone (DHT) is inhibited to 0 - 50% at any concentration of 0.1 nmol/L - 10 µmol/L:
Twenty-four hours before transfection, 1.0 x 10^5 HeLa cells are cultured in phenol red free DMEM/5% DCC-FBS on 12-well microplates. Five hundred nanograms/well of MMTV-Luc vector, 100 ng/well of pSG5/hAR and 5 ng/well of Renilla Luc vector are transfected into the HeLa cells. The transfection is performed in a liquid culture of the phenol red free DMEM using […] of lipofectoamine. Nine hours after the transfection, the liquid culture is replaced by phenol red free DMEM/3% DCC-FBS containing 0.1 nmol/L of DHT and […] of a compound of the invention which is represented by the general formula (I) or the substance of the invention which acts as antagonist against but not as agonist for the androgen receptor. The transcriptional activity value is measured 48 hours after the replacement of the liquid culture. Transcriptional activity is measured with a dual-luciferase reporter assay system. The transcriptional activity value is defined as the value for firefly luciferase divided by the value for sea pansy luciferase. […] 270, pp. 19998-20003, 1995.
as §1, with “pSG5/hAR” for “pSG5-hAR”
The compound was added at concentrations of 1, 10, 100, 1000 and 10000 nmol/L and at each of these concentrations, measurement was done in the presence of DHT (0.1 nmol/L). Antagonist activity = Transcriptional activity when the compound was added/Transcriptional activity when the compound was not added x 100 [formula]

For data set [3] the following is noted: prostate cancer patients under flutamide treatment; cited from earlier work.
A further data set deals with androgen receptor (Homo sapiens, UniProt P10275). The following applies: cited from earlier work.
The subject of the next data set is castrated rats. The following applies: two-week continuous administration; cited from earlier work.

As to `CN(C)C(=O)CCCCCCCCCCC1CC2CC(=O)CCC2(C)C2CCC3(C)C(O)CCC3C12` (stereo not drawn) [Example 52], the FI5 value entry at human androgen receptor [1] was “ND (even when the compound was added at a concentration of 10000 nM, the transcriptional activity of the compound-treated group was less than 5 times the transcriptional activity of the control group, making it impossible to compute the FI5 value)”. At human androgen receptor [2], this molecule had an IC50 of 277 nM.

Turning to `CC12CCC3C(C(CCCCCCCC(=O)NCCc4ccccc4)CC4CC(=O)CCC43C)C1CCC2O` (stereo not drawn) [Example 74], the FI5 value result on human androgen receptor [1] is reported as “ND (even when the compound was added at a concentration of 10000 nM, the transcriptional activity of the compound-treated group was less than 5 times the transcriptional activity of the control group, making it impossible to compute the FI5 value)”. The same molecule showed an IC50 on human androgen receptor [2] of 2040 nM.

`CC(C)(O)C(=O)Nc1ccc([N+](=O)[O-])c(C(F)(F)F)c1` [Hydroxyflutamide, hydroxyflutamide]: in data set [3], the Plasma levels result is reported as “several”. Moreover, the “transcriptional activity of the androgen receptor” value at androgen receptor is on record as “elevated”. On human androgen receptor [1] (at a concentration of 10 µmol/L), the acting as agonist result is given as “act as agonist”. Also, the FI5 value at human androgen receptor [1] came to 1000 nM. In addition, on human androgen receptor [1] (summary of the results of Example 180), the “agonist action for the androgen receptor mediated transcriptional activity” value was “exhibit agonist action”. The “transcriptional activity value of DHT” value on human androgen receptor [2] (text of Example 2, with 0.1 nmol/L of DHT, HeLa cells, 48 hours) is reported as “less than 50%”.

For the molecule `CC(=O)O[C@]1(C(C)=O)CC[C@H]2[C@@H]3C=C(Cl)C4=CC(=O)CC[C@]4(C)[C@H]3CC[C@@]21C` [chlormadinone acetate], the prostate weight result in the data set with castrated rats is listed as “increased”.

Consider `CC(=O)O[C@]1(C(C)=O)CC[C@H]2[C@@H]3C=C(Cl)C4=CC(=O)[C@@H]5C[C@@H]5[C@]4(C)[C@H]3CC[C@@]21C` [cyproterone acetate], for which, in the data set on castrated rats, the prostate weight result is “increased”.
